Laboratory results: article PMC11440035, “Interaction of myricetin, ampelopsin (dihydromyricetin), and their sulfate metabolites with serum albumin, cytochrome P450 (CYP2C9, 2C19, and 3A4) enzymes, and organic anion‐transporting polypeptides (OATP1B1 and OATP2B1)” (Pharmacology Research & Perspectives, 2024)
Each block holds one compound with its values, some of them ahead of it.

Assays:
OATP1B1 [1] = biological target: T1, OATP1B1 (Homo sapiens, UniProt Q9Y6L6); experiment: Uptake of flavonoids by A431-OATP1B1 versus mock cells (APB fluorescence); assay type: cell-based; details: BSP 20 μM, M3′S 2 μM, 2 min
T1 construct: expressed in transfected cells; host or cells: A431
T1 sequence (Q9Y6L6 1-691): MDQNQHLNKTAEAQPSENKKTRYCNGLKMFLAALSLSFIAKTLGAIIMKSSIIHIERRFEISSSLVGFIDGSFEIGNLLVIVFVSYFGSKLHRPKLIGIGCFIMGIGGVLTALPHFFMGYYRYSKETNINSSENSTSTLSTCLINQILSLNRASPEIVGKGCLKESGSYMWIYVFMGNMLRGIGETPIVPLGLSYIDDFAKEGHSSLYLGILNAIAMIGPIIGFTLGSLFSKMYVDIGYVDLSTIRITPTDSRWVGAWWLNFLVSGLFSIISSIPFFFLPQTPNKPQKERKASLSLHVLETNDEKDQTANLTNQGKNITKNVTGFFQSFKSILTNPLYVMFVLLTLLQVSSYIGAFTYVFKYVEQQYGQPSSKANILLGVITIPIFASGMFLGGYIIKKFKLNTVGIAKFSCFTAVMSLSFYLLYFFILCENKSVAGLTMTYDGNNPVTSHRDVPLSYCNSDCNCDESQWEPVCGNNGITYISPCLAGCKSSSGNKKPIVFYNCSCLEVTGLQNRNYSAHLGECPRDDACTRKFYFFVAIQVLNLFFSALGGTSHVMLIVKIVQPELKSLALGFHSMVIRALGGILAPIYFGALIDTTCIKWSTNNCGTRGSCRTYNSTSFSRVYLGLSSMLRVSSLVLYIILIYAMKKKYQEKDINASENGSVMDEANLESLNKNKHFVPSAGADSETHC
Protocol: (§1) Direct uptake of AMP, MYR, and their sulfate metabolites were examined in A431 cells overexpressing OATP1B1 or OATP2B1, and in their mock‐transfected controls using APB as a fluorescence enhancer. One day before the uptake measurements, the cells were seeded onto 96‐well plates at a density of 80 000 cells/well in DMEM (200 μL). The following day, the cell culture medium was removed, and the cells were rinsed thrice with PBS (200 μL). Thereafter, the cells were preincubated with HBSS (50 μL) for 5 min at 37°C. The uptake reaction was initiated by the addition of a further 50 μL of HBSS containing AMP, MYR, or their sulfate conjugates (10 μM). After incubating for 15 min at 37°C, the reaction was stopped by removing the supernatant and rinsing the cells three times with ice‐cold PBS. Then PBS buffer (200 μL) containing APB (250 μg/mL) and BSA (1 mg/mL) was added to each well.[35] The fluorescence was read using an Enspire plate reader using the wavelengths listed in Section 2.7.
(§2) The concentration‐dependent uptake of M3′S was also tested under the same conditions, except the cells were incubated with 0–10 μM M3′S for 2 min (OATP1B1) or 5 min (OATP2B1).
(§3) To test the effect of BSP (a known inhibitor of OATPs[44]) on the cellular uptake of M3′S, cells were preincubated with HBSS buffer (50 μL) with or without BSP (20 μM) for 5 min at 37°C. Thereafter, we added 50 μL of HBSS containing M3′S (final concentration: 2 μM), and cells were further incubated at 37°C for 2 min (OATP1B1) or 5 min (OATP2B1). The reaction was stopped by removing the supernatant. After washing the cells with ice‐cold PBS, a PBS buffer with APB/BSA was added. Fluorescence was determined by applying an Enspire plate reader at excitation/emission wavelengths of 480/540 nm.

OATP1B1 [2] = biological target: T1, OATP1B1; parameters: method as in PMID 32661014; details: positive control, same experimental model; cited from earlier work
OATP2B1 [3] = biological target: T2, OATP2B1 (Homo sapiens, UniProt O94956); experiment: Uptake of flavonoids by A431-OATP2B1 versus mock cells (APB fluorescence); assay type: cell-based; details: BSP 20 μM, M3′S 2 μM, 5 min
T2 construct: expressed in transfected cells; host or cells: A431
T2 sequence (O94956 1-709): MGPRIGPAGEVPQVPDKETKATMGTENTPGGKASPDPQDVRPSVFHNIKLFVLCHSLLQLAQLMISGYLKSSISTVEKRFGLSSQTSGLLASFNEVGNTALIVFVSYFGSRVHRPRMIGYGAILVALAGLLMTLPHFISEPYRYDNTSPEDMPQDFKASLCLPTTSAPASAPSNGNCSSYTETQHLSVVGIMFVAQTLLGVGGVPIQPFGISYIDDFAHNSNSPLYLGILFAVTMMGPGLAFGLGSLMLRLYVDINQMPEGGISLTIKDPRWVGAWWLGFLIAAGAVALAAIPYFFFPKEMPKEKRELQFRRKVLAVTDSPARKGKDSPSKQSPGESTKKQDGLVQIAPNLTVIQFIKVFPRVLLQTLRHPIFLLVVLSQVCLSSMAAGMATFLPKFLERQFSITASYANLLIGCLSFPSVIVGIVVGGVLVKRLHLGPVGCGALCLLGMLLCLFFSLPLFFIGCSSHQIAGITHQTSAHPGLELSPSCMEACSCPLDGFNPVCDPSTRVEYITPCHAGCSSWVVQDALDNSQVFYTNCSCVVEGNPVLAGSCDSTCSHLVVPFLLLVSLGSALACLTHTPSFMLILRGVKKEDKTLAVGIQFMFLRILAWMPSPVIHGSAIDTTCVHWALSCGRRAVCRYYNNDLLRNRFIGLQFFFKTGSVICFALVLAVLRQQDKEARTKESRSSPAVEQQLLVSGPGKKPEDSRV
Protocol: as §1, §2, §3

OATP2B1 [4] = biological target: T2, OATP2B1; parameters: method as in PMID 32661014; details: positive control, same experimental model; cited from earlier work
[5] = tested on: T3, human serum albumin (HSA); parameters: method as in PMID 30562928, PMID 28135601; details: same experimental conditions; cited from earlier work
T3 construct: purchased Merck (Darmstadt, Germany) A1653

CYP3A4 = tested on: T4, CYP3A4; experiment: CYP3A4 assay (testosterone hydroxylation), CypExpress human kit; assay type: biochemical; details: 20 μM, 5 μM substrate
T4 construct: purchased Merck (Darmstadt, Germany)

CYP2C9 = details: 20 μM test substance, 5 μM substrate

Compound: O=C1OC(c2ccc(O)c(S(=O)(=O)O)c2)(c2ccc(O)c(S(=O)(=O)O)c2)c2c(Br)c(Br)c(Br)c(Br)c21 [BSP, bromosulfophthalein, reference compound]
- effect on uptake of M3′S into OATP1B1‐overexpressing cells (OATP1B1 [1]): considerably decreased the uptake of M3′S
- IC50 (OATP1B1 [2]): 60 nM
- effect on uptake of M3′S into OATP2B1‐overexpressing cells (OATP2B1 [3]): considerably decreased the uptake of M3′S
- IC50 (OATP2B1 [4]): 1300 nM

Compound: O=c1cc(-c2ccccc2)oc2cc(OS(=O)(=O)O)cc(O)c12 [chrysin‐7‐sulfate]
- displacement of the site marker warfarin from HSA [5]: almost completely displaced the site marker

Compound: CC(=O)N1CCN(c2ccc(OCC3COC(Cn4ccnc4)(c4ccc(Cl)cc4Cl)O3)cc2)CC1 (centres unmarked) [ketoconazole]
- effect on CYP3A4 metabolite formation (CYP3A4): marked decreases in metabolite formation

Compound: O=c1c(O)c(-c2ccc(O)c(OS(=O)(=O)O)c2)oc2cc(O)cc(O)c12 [quercetin‐3′‐sulfate]
- displacement of the site marker warfarin from HSA [5]: almost completely displaced the site marker

- effect on CYP2C9‐catalyzed diclofenac hydroxylation (metabolite formation) (CYP2C9): marked decreases in metabolite formation
Compound: Nc1ccc(S(=O)(=O)Nc2ccnn2-c2ccccc2)cc1 [sulfaphenazole]
